This note sets out measurements from ChEMBL document CHEMBL1132855, “Modeling directed design and biological evaluation of quinazolinones as non-peptidic growth hormone secretagogues” (Bioorg Med Chem Lett, 2000).

Broadly, the pIC50 is the negative decadic logarithm of the IC50, by convention in mol/L. A higher pIC50 goes with a small IC50.

Structures are written as SMILES. pIC50: −log10 of the molar value.

The target of assay [1] is Growth hormone secretagogue receptor type 1 (Homo sapiens, UniProt Q92847). Nature of the assay: Binding affinity for human growth hormone GH secretagogue (hGHsr) receptor.
Growth hormone secretagogue receptor type 1, sequence (Q92847 whole entry): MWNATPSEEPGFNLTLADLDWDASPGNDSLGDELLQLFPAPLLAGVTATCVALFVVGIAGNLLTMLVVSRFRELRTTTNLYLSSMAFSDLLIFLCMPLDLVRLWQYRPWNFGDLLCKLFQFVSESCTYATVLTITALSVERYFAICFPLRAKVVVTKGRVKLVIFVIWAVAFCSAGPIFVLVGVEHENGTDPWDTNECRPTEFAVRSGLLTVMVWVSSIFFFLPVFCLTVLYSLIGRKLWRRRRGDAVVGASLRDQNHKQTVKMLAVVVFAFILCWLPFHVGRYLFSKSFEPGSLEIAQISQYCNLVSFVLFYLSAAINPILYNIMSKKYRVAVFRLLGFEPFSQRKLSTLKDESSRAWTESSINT
The species entered for a further assay is Rattus norvegicus. As to the kind of experiment: The effective concentration against rat pituitary cell GH release assay. The class given is functional. The settings on record: Pituitary gland cell.

As to `NCCCCCNC(=O)Cn1c(-c2ccc3ccccc3c2)nc2ccc(Br)cc2c1=O`, the pIC50 in assay [1] was 5.85.

In turn, `NCCCCCNC(=O)Cn1c(CCc2ccccc2)nc2ccc(-c3ccccc3)cc2c1=O` showed a pIC50 in assay [1] of 7.32.

Molecule `NCCCCCCNC(=O)Cn1c(-c2ccc3ccccc3c2)nc2ccc(Br)cc2c1=O` had a pIC50 in assay [1] of 6.02.

`NCCCCCNC(=O)Cn1c(-c2ccc3ccccc3c2)nc2ccc(-c3ccccc3)cc2c1=O` gave a negative logarithm of the IC50 (pIC50) in assay [1] of 6.47.

`NCCCCCCNC(=O)Cn1c(CCc2ccccc2)nc2ccc(Br)cc2c1=O`: the pIC50 in assay [1] was 7.17.

Consider `COC(=O)C(CCCCN)NC(=O)Cn1c(-c2ccc3ccccc3c2)nc2ccc(Cl)cc2c1=O` (stereo unspecified), for which the pIC50 in assay [1] is 5.46.

In assay [1], `NCCCCCNC(=O)Cn1c(CCc2ccccc2)nc2ccc(Br)cc2c1=O` showed a pIC50 of 6.47. Compared with the last molecule, the pIC50 is 1.01 log units higher.

For the molecule `NCCCCCCNC(=O)Cn1c(CCc2ccccc2)nc2ccc(-c3ccccc3)cc2c1=O`, the pIC50 in assay [1] was 7.80; in the assay listed under Rattus norvegicus, 6.20.

`NCCCCCCNC(=O)Cn1c(-c2ccc3ccccc3c2)nc2ccc(-c3ccccc3)cc2c1=O` showed a pIC50 in assay [1] of 6.70.

Turning to `CN1N=C2CCN(C(=O)[C@@H](COCc3ccccc3)NC(=O)C(C)(C)N)C[C@@]2(Cc2ccccc2)C1=O` [CAPROMORELIN], the negative logarithm of the IC50 (pIC50) in assay [1] is 5.52.
